Results published in the NIST ThermoML archive (doi:10.1021/je400395u).
± gives the expanded uncertainty stated by the source.

Assay: mn = molality of the nth substance listed, in mol/kg
Details: 100 kPa, Liquid; for viscosity: Capillary tube (Ostwald / Ubbelohde) method; for mass density: Vibrating tube method

OC[C@@H](O)[C@@H](O)[C@H](O)[C@H](O)CO [mannitol] + O
Details	mass density, m1 = 0.2003 [kg/m3]	mass density, m1 = 0.4001 [kg/m3]	mass density, m1 = 0.5999 [kg/m3]	mass density, m1 = 0.7997 [kg/m3]	mass density, m1 = 1 [kg/m3]	viscosity, m1 = 0.2003 [mPa·s]	viscosity, m1 = 0.4001 [mPa·s]	viscosity, m1 = 0.5999 [mPa·s]	viscosity, m1 = 0.7997 [mPa·s]	viscosity, m1 = 1 [mPa·s]
293.15 K	1010.6 ± 0.18	1022.32 ± 0.18	1033.48 ± 0.18	1044.08 ± 0.19	1054.22 ± 0.19	1.106 ± 0.023	1.219 ± 0.026	1.345 ± 0.028	1.486 ± 0.031	1.634 ± 0.034
303.15 K	1007.89 ± 0.17	1019.47 ± 0.18	1030.47 ± 0.18	1040.9 ± 0.18	1050.86 ± 0.19	0.875 ± 0.018	0.957 ± 0.02	1.048 ± 0.022	1.151 ± 0.024	1.256 ± 0.026
313.15 K	1004.33 ± 0.17	1015.78 ± 0.18	1026.64 ± 0.18	1036.96 ± 0.18	1046.81 ± 0.19	0.713 ± 0.015	0.774 ± 0.016	0.842 ± 0.018	0.918 ± 0.019	0.996 ± 0.021
323.15 K	1000.02 ± 0.17	1011.34 ± 0.18	1022.08 ± 0.18	1032.29 ± 0.18	1042.03 ± 0.18	0.592 ± 0.012	0.64 ± 0.013	0.693 ± 0.015	0.751 ± 0.016	0.811 ± 0.017

O=C1O[C@H]([C@@H](O)CO)C(O)=C1O [L-ascorbic acid] + O
Details	mass density, 293.15 K [kg/m3]	mass density, 303.15 K [kg/m3]	mass density, 313.15 K [kg/m3]	mass density, 323.15 K [kg/m3]	viscosity, 293.15 K [mPa·s]	viscosity, 303.15 K [mPa·s]	viscosity, 313.15 K [mPa·s]	viscosity, 323.15 K [mPa·s]
m1 = 0.1	1005.25 ± 0.16	1002.56 ± 0.16	999.06 ± 0.16	994.78 ± 0.16	1.042 ± 0.022	0.828 ± 0.017	0.677 ± 0.014	0.565 ± 0.012
m1 = 0.2	1012.12 ± 0.17	1009.33 ± 0.17	1005.69 ± 0.16	1001.31 ± 0.16	1.09 ± 0.023	0.858 ± 0.018	0.699 ± 0.015	0.584 ± 0.012
m1 = 0.2002	1012.12 ± 0.18	1009.33 ± 0.18	1005.69 ± 0.17	1001.31 ± 0.17	1.09 ± 0.023	0.858 ± 0.018	0.699 ± 0.015	0.584 ± 0.012
m1 = 0.3	1018.82 ± 0.17	1015.91 ± 0.17	1012.2 ± 0.17	1007.78 ± 0.17	1.128 ± 0.024	0.894 ± 0.019	0.724 ± 0.015	0.603 ± 0.013
m1 = 0.3141	1018.82 ± 0.18	1015.91 ± 0.18	1012.2 ± 0.18	1007.78 ± 0.17	1.128 ± 0.024	0.894 ± 0.019	0.724 ± 0.015	0.603 ± 0.013
m1 = 0.4	1025.4 ± 0.17	1022.39 ± 0.17	1018.62 ± 0.17	1014.08 ± 0.17	1.167 ± 0.024	0.922 ± 0.019	0.751 ± 0.016	0.623 ± 0.013
